How the values were obtained:
[1] = tested on: sunburn cells (SBC) in human skin explants; test: Sunburn cells (SBC) in human skin explants after UVB; assay type: cell-based; conditions: for % SBC (Sun Burn Cells): after UVB 2 J/cm^2
Procedure: With a view to determining the action of teprenone as per the invention, the effect of the active substance on the presence of sunburn cells (SBC) and apoptotic cell in human skin explants was investigated.
Human skin explants are treated in a way similar to the preceding experiment of description of the protective role of the teprenone on the catalase activity (obtained from a patient having undergone plastic surgery, cultured with or without teprenone for 48 hours then exposed to UV B radiation (2 J/cm^2). After irradiation, the explants were again cultured in fresh medium with or without teprenone for 24 hours).
SBC were evidenced on paraffin-wax-embedded skin explant sections by staining with […]. SBC, apoptotic keratinocytes with pyknotic nuclei and eosinophilic cytoplasm, are characteristic of mammalian epidermis exposed to UV B radiation.

[2] = tested on: Normal human fibroblasts (FHN); test: Replicative capacity of serially sub-cultured fibroblasts; assay type: cell-based
From the text: Normal human fibroblasts are able to divide a limited number of times: according to the literature, 30 times approximately. Progressively, the cells change morphology and become less and less suited to the mitosis: time between 2 mitoses lengthens, the cellular metabolism is very slowed down, the cells are known as senescent.
Normal human fibroblasts (FHN) are cultivated until the “12th cycle” in order to begin the tests with cells already part-time from the duration life (=12 cycles of replication on 30 cycles), they are then separate in 3 batches: The batch control, the batch treated daily by 1 μM of teprenone and the batch daily treated with 3 μM of teprenone.
Each plate contains ˜50 000 cells and the cells cultivated in medium DMEM, until confluency or until obtaining enough cells for the taking away of 50 000 cells necessary to the following cycle. At each time the cells are collected by trypsinisation, are counted, and aliquot of 50 000 cells seeded for the following cycle. This cycle is repeated until it is no more possible to obtain cellular multiplication.

[3] = Lipid peroxidation of liposomes using UVA radiation; assay type: biochemical; conditions: UVA induced, vs negative control
Procedure: In order to determine the action of teprenone as per the invention, the effect of the active substance on the lipid peroxidation of liposomes was analyzed. The liposomes were used to model cutaneous lipids.
In this method, liposomes are exposed to the test compound and then to UV A radiation. Peroxidation is determined by spectrophotometry at 233 nm.

CC(=O)CCC=C(C)CCC=C(C)CCC=C(C)CCC=C(C)C [Teprenone, 6,10,14,18-tetramethyl-5,9,13-nonadecatetren-2-one]
% SBC (Sun Burn Cells) ([1]; 0.05 mM): 45%
% SBC (Sun Burn Cells) ([1]; 0.1 mM): 27%
diminution of SBC ([1]; after UVB, vs irradiated): −66%
cycle until which the fibroblasts remained more active ([2]; 1 μM): 22
entry into marked senescence, later than the controls ([2]; 1 μM): 44 days
Nb cells (×10^3) ([2]; 1 μM, cycle 13 (7 d)): 204 ×10^3
Nb cells (×10^3) ([2]; 1 μM, cycle 14 (8 d)): 214 ×10^3
Nb cells (×10^3) ([2]; 1 μM, cycle 15 (11 d)): 199 ×10^3
Nb cells (×10^3) ([2]; 1 μM, cycle 16 (14 d)): 186 ×10^3
Nb cells (×10^3) ([2]; 1 μM, cycle 17 (13 d)): 164 ×10^3
Nb cells (×10^3) ([2]; 1 μM, cycle 18 (18 d)): 197 ×10^3
Nb cells (×10^3) ([2]; 1 μM, cycle 19 (17 ds)): 185 ×10^3
Nb cells (×10^3) ([2]; 1 μM, cycle 20 (14 d)): 124 ×10^3
Replicative capac vs control ([2]; 1 μM, cycle 20 (14 d)): +13
Nb cells (×10^3) ([2]; 1 μM, cycle 21 (22 d)): 130 ×10^3
Replicative capac vs control ([2]; 1 μM, cycle 21 (22 d)): +38
Nb cells (×10^3) ([2]; 1 μM, cycle 22 (20 d)): 146 ×10^3
Replicative capac vs control ([2]; 1 μM, cycle 22 (20 d)): +117
Nb cells (×10^3) ([2]; 1 μM, cycle 23 (36 d)): 105 ×10^3
Replicative capac vs control ([2]; 1 μM, cycle 23 (36 d)): +25
Nb cells (×10^3) ([2]; 1 μM, cycle 24 (28 d)): 66 ×10^3
Replicative capac vs control ([2]; 1 μM, cycle 24 (28 d)): ns
Nb cells (×10^3) ([2]; 1 μM, cycle 25 (77 d)): 59 ×10^3
Replicative capac vs control ([2]; 1 μM, cycle 25 (77 d)): ns
cycle until which the fibroblasts retained their replicative potential ([2]; 3 μM): 24
fibroblast lifetime extended with no impairment of replicative capacity ([2]; 3 μM): 100 days
replicative potential retained, later than the controls ([2]; 3 μM): 100 days
activity of treated cells vs control cells after replicative potential began to subside ([2]; 3 μM, after cycle 24): almost two-fold more active than the control cells
Nb cells (×10^3) ([2]; 3 μM, cycle 13 (7 d)): 213 ×10^3
Nb cells (×10^3) ([2]; 3 μM, cycle 14 (8 d)): 195 ×10^3
Nb cells (×10^3) ([2]; 3 μM, cycle 15 (11 d)): 140 ×10^3
Nb cells (×10^3) ([2]; 3 μM, cycle 16 (14 d)): 167 ×10^3
Nb cells (×10^3) ([2]; 3 μM, cycle 17 (13 d)): 166 ×10^3
Nb cells (×10^3) ([2]; 3 μM, cycle 18 (18 d)): 192 ×10^3
Nb cells (×10^3) ([2]; 3 μM, cycle 19 (17 ds)): 198 ×10^3
Nb cells (×10^3) ([2]; 3 μM, cycle 20 (14 d)): 145 ×10^3
Replicative capac vs control ([2]; 3 μM, cycle 20 (14 d)): +33
Nb cells (×10^3) ([2]; 3 μM, cycle 21 (22 d)): 154 ×10^3
Replicative capac vs control ([2]; 3 μM, cycle 21 (22 d)): +64
Nb cells (×10^3) ([2]; 3 μM, cycle 22 (20 d)): 157 ×10^3
Replicative capac vs control ([2]; 3 μM, cycle 22 (20 d)): +134
Nb cells (×10^3) ([2]; 3 μM, cycle 23 (36 d)): 204 ×10^3
Replicative capac vs control ([2]; 3 μM, cycle 23 (36 d)): +99
Nb cells (×10^3) ([2]; 3 μM, cycle 24 (28 d)): 115 ×10^3
Replicative capac vs control ([2]; 3 μM, cycle 24 (28 d)): +79
Nb cells (×10^3) ([2]; 3 μM, cycle 25 (77 d)): 95 ×10^3
Replicative capac vs control ([2]; 3 μM, cycle 25 (77 d)): 82
Variation of peroxydation ([3]; concentration 3 · 10^−2%): −77%
Variation of peroxydation ([3]; concentration 3 · 10^−3%): −10%
Variation of peroxydation ([3]; concentration 3 · 10^−4%): −22%
Variation of peroxydation ([3]; concentration 10^−2%): −52%
Variation of peroxydation ([3]; concentration 10^−3%): −12%
